Assay results: PubChem BioAssay (NCI)
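The compound was tested at five concentrations on cells cultured in 96-well plates, with a 48-hour exposure period. TGI: concentration producing complete growth inhibition.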

Tests used:
Experiment in all cases: growth of human tumour cells (NCI), 48 h
[1] = tested on: HS 578T breast
[2] = tested on: MDA-N
[3] = tested on: UACC-62 melanoma
[4] = tested on: PC-3 prostate
[5] = tested on: BT-549 breast
[6] = tested on: OVCAR-5 ovarian
[7] = tested on: NCI/ADR-RES ovarian
[8] = tested on: MDA-MB-231 breast
[9] = tested on: A549 NSCLC
[10] = tested on: RPMI-8226 leukemia
[11] = tested on: SF-295 CNS
[12] = tested on: RXF 393 renal
[13] = tested on: SK-MEL-2 melanoma
[14] = tested on: MCF7 breast
[15] = tested on: OVCAR-4 ovarian
[16] = tested on: ACHN renal
[17] = tested on: UO-31 renal
[18] = tested on: HOP-92 NSCLC
[19] = tested on: MALME-3M melanoma
[20] = tested on: NCI-H460 lung
[21] = tested on: SW-620 colon
[22] = tested on: HOP-62 NSCLC
[23] = tested on: T-47D breast
[24] = tested on: U251 CNS
[25] = tested on: COLO 205 colon
[26] = tested on: LOX IMVI melanoma
[27] = tested on: IGROV1 ovarian
[28] = tested on: DU-145 prostate
[29] = tested on: KM12 colon
[30] = tested on: NCI-H226 lung
[31] = tested on: A498 renal
[32] = tested on: SNB-19 CNS
[33] = tested on: UACC-257 melanoma
[34] = tested on: HCC-2998 colon
[35] = tested on: SNB-75 CNS
[36] = tested on: OVCAR-8 ovarian
[37] = tested on: CAKI-1 renal
[38] = tested on: HCT-116 colon
[39] = tested on: MDA-MB-435
[40] = tested on: SR leukemia
[41] = tested on: SK-MEL-28 melanoma
[42] = tested on: CCRF-CEM leukemia
[43] = tested on: HCT-15 colon
[44] = tested on: TK-10 renal
[45] = tested on: MOLT-4 leukemia
[46] = tested on: K-562 leukemia
[47] = tested on: NCI-H23 lung
[48] = tested on: SK-MEL-5 melanoma
[49] = tested on: SF-268 CNS
[50] = tested on: OVCAR-3 ovarian
[51] = tested on: EKVX NSCLC
[52] = tested on: SK-OV-3 ovarian
[53] = tested on: NCI-H522 lung
[54] = tested on: SN12C renal
[55] = tested on: HT29 colon
[56] = tested on: M14 melanoma
[57] = tested on: SF-539 CNS
[58] = tested on: 786-0 renal
[59] = tested on: HL-60(TB) leukemia

SMILES: COc1cc(OC)cc(C(=O)NC2=C(Cl)C(=O)c3ccccc3C2=O)c1
- TGI [1]: 24.4 µM
- TGI [2]: 5.13 µM
- TGI [3]: 1.22 µM
- TGI [4]: 10.9 µM
- TGI [5]: 9.22 µM
- TGI [6]: 16.6 µM
- TGI [7]: 11.9 µM
- TGI [8]: 29.2 µM
- TGI [9]: > 38.3 µM
- TGI [10]: > 21.7 µM
- TGI [11]: 9.91 µM
- TGI [12]: 4.09 µM
- TGI [13]: 4.01 µM
- TGI [14]: 8.73 µM
- TGI [15]: 6.01 µM
- TGI [16]: 2.83 µM
- TGI [17]: 9.42 µM
- TGI [18]: 2.89 µM
- TGI [19]: 3.31 µM
- TGI [20]: 9.24 µM
- TGI [21]: 2.65 µM
- TGI [22]: 27.8 µM
- TGI [23]: 3.51 µM
- TGI [24]: 9.42 µM
- TGI [25]: 15.6 µM
- TGI [26]: 5.14 µM
- TGI [27]: 12.9 µM
- TGI [28]: 16.8 µM
- TGI [29]: 10.4 µM
- TGI [30]: 12 µM
- TGI [31]: 27.1 µM
- TGI [32]: 21.9 µM
- TGI [33]: 6.2 µM
- TGI [34]: 13.8 µM
- TGI [35]: 12.3 µM
- TGI [36]: 17.6 µM
- TGI [37]: 17.7 µM
- TGI [38]: 2.35 µM
- TGI [39]: 4.48 µM
- TGI [40]: > 23.1 µM
- TGI [41]: 19 µM
- TGI [42]: 3.99 µM
- TGI [43]: 10.4 µM
- TGI [44]: 7.68 µM
- TGI [45]: 6.12 µM
- TGI [46]: 4.01 µM
- TGI [47]: 7.93 µM
- TGI [48]: 5.35 µM
- TGI [49]: 12.8 µM
- TGI [50]: 5.54 µM
- TGI [51]: > 39.6 µM
- TGI [52]: 11.2 µM
- TGI [53]: 2.47 µM
- TGI [54]: 13.1 µM
- TGI [55]: 10.9 µM
- TGI [56]: 6.67 µM
- TGI [57]: 18.5 µM

SMILES: O=C1c2ccccc2CCC1C(O)(C(F)(F)F)C(F)(F)F (stereo not given)
- TGI [1]: > 100 µM
- TGI [2]: > 100 µM
- TGI [3]: > 100 µM
- TGI [4]: > 100 µM
- TGI [5]: > 100 µM
- TGI [6]: > 100 µM
- TGI [7]: > 100 µM
- TGI [8]: > 100 µM
- TGI [9]: > 100 µM
- TGI [10]: > 100 µM
- TGI [11]: > 100 µM
- TGI [12]: > 100 µM
- TGI [13]: > 100 µM
- TGI [14]: > 100 µM
- TGI [15]: > 100 µM
- TGI [16]: > 100 µM
- TGI [17]: > 100 µM
- TGI [18]: > 100 µM
- TGI [19]: > 100 µM
- TGI [20]: > 100 µM
- TGI [21]: > 100 µM
- TGI [23]: > 100 µM
- TGI [58]: > 100 µM
- TGI [24]: > 100 µM
- TGI [25]: > 100 µM
- TGI [26]: > 100 µM
- TGI [27]: > 100 µM
- TGI [28]: > 100 µM
- TGI [29]: > 100 µM
- TGI [30]: > 100 µM
- TGI [31]: > 100 µM
- TGI [32]: > 100 µM
- TGI [33]: > 100 µM
- TGI [34]: > 100 µM
- TGI [35]: > 100 µM
- TGI [36]: > 100 µM
- TGI [37]: > 100 µM
- TGI [38]: > 100 µM
- TGI [39]: > 100 µM
- TGI [40]: > 100 µM
- TGI [41]: > 100 µM
- TGI [42]: > 100 µM
- TGI [43]: > 100 µM
- TGI [44]: > 100 µM
- TGI [45]: > 100 µM
- TGI [46]: > 100 µM
- TGI [47]: > 100 µM
- TGI [48]: > 100 µM
- TGI [50]: > 100 µM
- TGI [51]: > 100 µM
- TGI [52]: > 100 µM
- TGI [53]: > 100 µM
- TGI [55]: > 100 µM
- TGI [56]: > 100 µM
- TGI [57]: > 100 µM

SMILES: Cn1c(=O)c2c(nc3sc4nc5ccccc5nc4n32)n(C)c1=O
- TGI [1]: > 100 µM
- TGI [2]: > 100 µM
- TGI [3]: > 100 µM
- TGI [4]: > 100 µM
- TGI [5]: > 100 µM
- TGI [6]: > 100 µM
- TGI [7]: > 100 µM
- TGI [8]: > 100 µM
- TGI [9]: > 100 µM
- TGI [59]: > 100 µM
- TGI [10]: > 100 µM
- TGI [11]: > 100 µM
- TGI [12]: > 100 µM
- TGI [14]: > 100 µM
- TGI [16]: > 100 µM
- TGI [17]: > 100 µM
- TGI [18]: > 100 µM
- TGI [19]: > 100 µM
- TGI [20]: > 100 µM
- TGI [23]: > 100 µM
- TGI [58]: > 100 µM
- TGI [24]: > 100 µM
- TGI [25]: > 100 µM
- TGI [26]: > 100 µM
- TGI [27]: > 100 µM
- TGI [28]: > 100 µM
- TGI [29]: > 100 µM
- TGI [30]: > 100 µM
- TGI [31]: > 100 µM
- TGI [32]: > 100 µM
- TGI [33]: > 100 µM
- TGI [34]: > 100 µM
- TGI [35]: > 100 µM
- TGI [36]: > 100 µM
- TGI [37]: > 100 µM
- TGI [38]: > 100 µM
- TGI [39]: > 100 µM
- TGI [40]: > 100 µM
- TGI [42]: > 100 µM
- TGI [43]: > 100 µM
- TGI [44]: > 100 µM
- TGI [45]: > 100 µM
- TGI [46]: > 100 µM
- TGI [47]: > 100 µM
- TGI [48]: > 100 µM
- TGI [49]: > 100 µM
- TGI [50]: > 100 µM
- TGI [51]: > 100 µM
- TGI [52]: > 100 µM
- TGI [54]: > 100 µM
- TGI [55]: > 100 µM
- TGI [56]: > 100 µM
- TGI [57]: > 100 µM
